Test system: Glucokinase known as hexokinase IV (human GK isoform 1, pancreas form and human GK isoform 2, liver form)
Experiment: Glucokinase enzymatic activity assay (G6PDH-coupled, NADH absorbance at 340 nm)
Format: biochemical
Details: 5 mM glucose, 1 mM ATP, 37 nM GK, 10 min at room temperature
Protocol: Glucokinase known as hexokinase IV (human GK isoform 1, pancreas form and human GK isoform 2, liver form) was cloned into an expression vector pET15 fx (Novagen Co.), transformed to E. coli BL21 (DE3) (Invitrogen Co.) strain, expressed, and purified using a nickel column. Then, the glucokinase obtained from dialysis was used in the following assay.
Glucokinase assay was performed by measuring absorbance according to the conventional manner. Briefly speaking, glucokinase converts the substrate glucose to glucose-6-phosphate under certain conditions, and glucose-6-phosphate dehydrogenase irreversibly converts glucose-6-phosphate to gluconate-6-phosphate. During this procedure, NADH is formed, and its absorbance is measured to calculate the enzymatic activity.
In the measurement of the enzymatic activity, each compound was diluted by two-fold from the maximum to the minimum concentrations, and 2 μl of each solution was added to 96 well UV plate (BD bioscience). 60 μl of the first mixture (final concentrations 25 mM Hepes, 25 mM KCl, 2 mM MgCl2, 1 mM DTT) was added, and thoroughly mixed. 38 μl of the enzyme mixture (final concentrations 1 mM ATP, 1 mM NAD, 5 mM glucose, 0.85U G6PDH, 37 nM GK) was added (final volume 100 μl), and the mixture was reacted for 10 min at room temperature. The absorbance of NADH was measured at 340 nm using a UV spectrometer (Molecular Device).
The enzyme activating abilities of the compounds according to the present invention are represented as AC1.5 (the compound concentration at which the enzymatic activity is increased by 1.5 times, nM), which is in the range of 0.001 uM to 30 uM or less, preferably 0.001 uM to 10 uM, more preferably 0.001 uM to 1 uM.

Compound | AC1.5 (the compound concentration at which the enzymatic activity is increased by 1.5 times) [nM]
CS(=O)(=O)N1CCC(Nc2cccc3cc(C4=N[C@H](CO)CS4)[nH]c23)C1 (stereo partly drawn) [Example 4, {(R)-2-[7-(1-methanesulfonyl-pyrrolidin-3-ylamino)-1H-indol-2-yl]-4,5-dihydro-thiazol-4-yl}-methanol] | 217
OC[C@@H]1CSC(c2cc3cc(F)cc(NC4CCOCC4)c3[nH]2)=N1 [Example 6, {(R)-2-[5-fluoro-7-(tetrahydro-pyran-4-ylamino)-1H-indol-2-yl]-4,5-dihydro-thiazol-4-yl}-methanol] | 31
OC[C@@H]1CSC(c2cc3cc(Cl)cc(NC4CCOCC4)c3[nH]2)=N1 [Example 8, {(R)-2-[5-chloro-7-(tetrahydro-pyran-4-ylamino)-1H-indol-2-yl]-4,5-dihydro-thiazol-4-yl}-methanol] | 32
OC[C@@H]1CSC(c2cc3cc(Cl)cc(NC4CCSCC4)c3[nH]2)=N1 [Example 9, {(R)-2-[5-chloro-7-(tetrahydro-thiopyran-4-ylamino)-1H-indol-2-yl]-4,5-dihydro-thiazol-4-yl}-methanol] | 24
COc1cc(NC2CCCC2)c2[nH]c(C3=N[C@H](CO)CS3)cc2c1 [Example 12, [(R)-2-(7-cyclopentylamino-5-methoxy-1H-indol-2-yl)-4,5-dihydro-thiazol-4-yl]-methanol] | 25
OC[C@@H]1CSC(c2cc3cc(Oc4cccnc4)cc(NC4CCCC4)c3[nH]2)=N1 [Example 13, {(R)-2-[7-cyclopentylamino-5-(pyridin-3-yloxy)-1H-indol-2-yl]-4,5-dihydro-thiazol-4-yl}-methanol] | 12
OC[C@@H]1CSC(c2cc3cc(Oc4cccnc4)cc(NC4CCOCC4)c3[nH]2)=N1 [Example 14, {(R)-2-[5-(pyridin-3-yloxy)-7-(tetrahydro-pyran-4-ylamino)-1H-indol-2-yl]-4,5-dihydro-thiazol-4-yl}-methanol] | 8
OC[C@@H]1CSC(c2cc3cc(Cn4cccn4)cc(NC4CCCC4)c3[nH]2)=N1 [Example 21, [(R)-2-[7-cyclopentylamino-5-pyrazol-1-ylmethyl-1H-indol-2-yl]-4,5-dihydro-thiazol-4-yl}-methanol] | 16
OC[C@@H]1CSC(c2cc3cc(Cn4ccnc4)cc(NC4CCCC4)c3[nH]2)=N1 [Example 22, [(R)-2-(7-cyclopentylamino-5-imidazol-1-ylmethyl-1H-indol-2-yl)-4,5-dihydro-thiazol-4-yl}-methanol] | 112
OC[C@@H]1CSC(c2cc3cc(Cc4cc[nH]c4)cc(NC4CCCC4)c3[nH]2)=N1 [Example 23, {(R)-2-[7-cyclopentylamino-5-(1H-pyrrol-3-ylmethyl)-1H-indol-2-yl]-4,5-dihydro-thiazol-4-yl}-methanol] | 19
CS(=O)(=O)Cc1cc(NC2CCCC2)c2[nH]c(C3=N[C@H](CO)CS3)cc2c1 [Example 24, [(R)-2-(7-cyclopentylamino-5-methanesulfonylmethyl-1H-indol-2-yl)-4,5-dihydro-thiazol-4-yl]-methanol] | 32
COC(=O)C[C@@H]1CSC(c2cc3cc(Cl)cc(NC4CCCC4)c3[nH]2)=N1 [Example 26, [(R)-2-(5-chloro-7-cyclopentylamino-1H-indol-2-yl)-4,5-dihydro-thiazol-4-yl]acetic acid methyl ester] | 7
COC(=O)C[C@@H]1CSC(c2cc3cc(Cl)cc(NC4CCOCC4)c3[nH]2)=N1 [Example 30, {(R)-2-[5-chloro-7-(tetrahydro-pyran-4-ylamino)-1H-indol-2-yl]-4,5-dihydro-thiazol-4-yl}acetic acid methyl ester] | 28
OCC[C@@H]1CSC(c2cc3cc(Br)cc(NC4CCCC4)c3[nH]2)=N1 [Example 34, 2-[(R)-2-(5-bromo-7-cyclopentylamino-1H-indol-2-yl)-4,5-dihydro-1,3-thiazol-4-yl]-ethanol] | 11

The remaining lines, values ahead:

AC1.5 (the compound concentration at which the enzymatic activity is increased by 1.5 times) [nM] | Compound
184 | OC[C@@H]1CSC(c2cc3cccc(NC4CCOC4)c3[nH]2)=N1 (stereo partly drawn) [Example 3, {(R)-2-[7-(tetrahydro-furan-3-ylamino)-1H-indol-2-yl]-4,5-dihydro-thiazol-4-yl}-methanol]
7 | OC[C@@H]1CSC(c2cc3cc(F)cc(NC4CCCC4)c3[nH]2)=N1 [Example 5, [(R)-2-(7-cyclopentylamino-5-fluoro-1H-indol-2-yl)-4,5-dihydro-thiazol-4-yl]-methanol]
7 | OC[C@@H]1CSC(c2cc3cc(Cl)cc(NC4CCCC4)c3[nH]2)=N1 [Example 7, [(R)-2-(5-chloro-7-cyclopentylamino-1H-indol-2-yl)-4,5-dihydro-thiazol-4-yl]-methanol]
6 | OC[C@@H]1CSC(c2cc3cc(Br)cc(NC4CCCC4)c3[nH]2)=N1 [Example 10, [(R)-2-(5-bromo-7-cyclopentylamino-1H-indol-2-yl)-4,5-dihydro-thiazol-4-yl]-methanol]
14 | OC[C@@H]1CSC(c2cc3cc(Br)cc(NC4CCOCC4)c3[nH]2)=N1 [Example 11, {(R)-2-[5-bromo-7-(tetrahydro-pyran-4-ylamino)-1H-indol-2-yl]-4,5-dihydro-thiazol-4-yl}-methanol]
400 | c1cc(NC2CCCC2)c2[nH]c(C3=N[C@H](CN4CCCC4)CS3)cc2c1 [Example 15, cyclopentyl-[2-((R)-4-pyrrolidin-1-ylmethyl-4,5-dihydro-thiazol-2-yl)-1H-indol-7-yl]-amine]
64 | c1cc(NC2CCCC2)c2[nH]c(C3=N[C@H](CN4CCOCC4)CS3)cc2c1 [Example 16, cyclopentyl-[2-((R)-4-morpholin-4-ylmethyl-4,5-dihydro-thiazol-2-yl)-1H-indol-7-yl]-amine]
8 | CCOC(=O)C[C@@H]1CSC(c2cc3cc(Cl)cc(NC4CCCC4)c3[nH]2)=N1 [Example 28, [(R)-2-(5-chloro-7-cyclopentylamino-1H-indol-2-yl)-4,5-dihydro-thiazol-4-yl]acetic acid ethyl ester]
16 | O=C(O)C[C@@H]1CSC(c2cc3cc(Cl)cc(NC4CCOCC4)c3[nH]2)=N1 [Example 31, {(R)-2-[5-chloro-7-(tetrahydro-pyran-4-ylamino)-1H-indol-2-yl]-4,5-dihydro-thiazol-4-yl}-acetic acid]
6 | O=C(O)C[C@@H]1CSC(c2cc3cc(Br)cc(NC4CCOCC4)c3[nH]2)=N1 [Example 35, {(R)-2-[5-bromo-7-(tetrahydro-pyran-4-ylamino)-1H-indol-2-yl]-4,5-dihydro-thiazol-4-yl}-acetic acid]

From US8309586B2, “Glucokinase activators and pharmaceutical compositions containing the same as an active ingredient” (LG Life Sciences Ltd., priority 2007, dated 2012)
